≈ marks a conversion by molar mass, not a printed value. Where two headings read alike, the source gives them in different places. Marks after values point to notes of the source that are not given here.
How the values were obtained:
[1] = tested on: Staphylococcus aureus ATCC 43300; experiment: microbe, parasite or virus in culture; format: cell-based; conditions: Staphylococcus aureus, ATCC43300; microtiter broth dilution, MHB, 10^5 CFUs/mL, 16–18 h at 37 °C; read-out: MIC
Protocol: The experimental operation of the expression of the Plectasin variant in P. pastoris in well plates, shaking flasks, and 5 L level fermentation was performed as referenced in previous studies. Candidates were identified through three different levels of screening. Firstly, a large number of transformants were screened through well plates to induce expression and determined by the inhibition zone assay (against S. aureus ATCC 43300). Secondly, the transformants with obvious inhibition zones were sequenced to obtain protein sequence information, then induced expression at the shake level. The supernatant was collected and purified to obtain the target protein; the anti-Staphylococcus aureus activity of the protein was detected by a MIC assay. Finally, the codons of candidate sequences were optimized, the expression vector was reconstructed, the optimal transformers were obtained, and the high-density cultivation was performed in a 5 L fermenter. The final agent was determined by high protein yield and good activity (Figure 2).
The MIC value of PN7 against bacteria was determined by the microtiter broth dilution method. Briefly, bacteria grown to the exponential phase were diluted into MHB; subsequently, 90 μL of bacterial suspension (10^5 CFUs/mL) was mixed with 10 μL of different concentrations of PN7 in a sterilized 96-well microtiter plate (Nunc). MIC values were recorded after incubation for 16–18 h at 37 °C based on the lowest concentrations of peptides in which no visible bacterial growth was observed.

[2] = tested on: S. aureus ATCC 43300; experiment: Post antibiotic effect (PAE); format: cell-based, Staphylococcus aureus; conditions: triplicate
From the text: The post-antibiotic effect reflects the inhibitory effect on the growth of pathogenic bacteria after short contact with drugs, which is related to the strength of the bactericidal activity of drugs. The test method of the PAE of PN7 against S. aureus ATCC 43300 refers to the descriptions in previous studies.

[3] = tested on: S. aureus ATCC 43300; experiment: Time-killing curves; format: cell-based, Staphylococcus aureus
Protocol: S. aureus ATCC 43300 was cultured to the logarithmic stage, MHB medium was used for adjusting the concentration of bacterial suspension, and PN7 (1×, 2× and 4× MIC), Plectasin (1×, 2× and 4× MIC) and 2× MIC vancomycin (the MIC was 1 μg/mL) were added into the suspensions containing 10^5 CFU/mL bacteria (after the count of viable bacteria detection, the initial inoculation amount was 5.15 Log10 CFU/mL), cultured at 37 °C and 250 rpm. A 100 CFU/mL is considered the detection limit. […] In contrast, the count was reduced by 1.6 Log10 CFU/mL after treatment with 2× MIC vancomycin, an approximately 66% population decrease of target pathogens compared with the PN7 treatment group at the same time point of the second hour. After 4 h, the colony number of the peptide treatment group was almost 0, while that of the vancomycin treatment group was 0 after 8 h, at 4 h later than the PN7 treatment. At 24 h, the number of colonies of only 1× MIC Plectasin treatment group rebounded, while no such phenomenon occurred in the other treatment groups.
S. aureus ATCC 43300 was cultured to the logarithmic stage. MHB medium adjusted the concentration of bacterial suspension, and PN7 (1×, 2× and 4× MIC) was added into the suspensions containing 10^5 CFU/mL bacteria, cultured at 37 °C and 250 rpm. 1×, 2×, 4× MIC Plectasin and 2× MIC vancomycin were used as positive controls, and the group treated without antibiotics was used as the blank controls. Then, 100 μL samples were taken at different time points and were continuously diluted and coated on MHA medium for colony counting. A 100 CFU/mL is considered the detection limit.

[4] = tested on: S. aureus ATCC 43300; experiment: Membrane permeability, PI staining by FACS; format: cell-based, Staphylococcus aureus; conditions: 2× MIC, 10^8 CFU/mL, 37 °C
Protocol: Figure 8 In vitro antimicrobial analysis of PN7. (A): Time-kill curve of PN7, Plectasin, and vancomycin against S. aureus ATCC. All experiments were performed in triplicate. (B): The PAE of 1×, 2× and 4× MIC of PN7 and vancomycin against S. aureus ATCC 43300 (the MIC values of PN7 and vancomycin against S. aureus ATCC 43300 were 8 μg/mL and 1μg/mL, respectively). All experiments were performed in triplicate. (C): The morphological influence of PN7 on S. aureus ATCC 43300 was observed by SEM. (D,E): The effects of PN7 (D) and Plectasin (E)) on membrane permeability were analyzed by FACS. The logarithmic phase S. aureus ATCC 43300 cells (10^8 CFU/mL) were incubated with or without 2× MIC peptide solutions at 37 °C at different times. All experiments were performed in triplicate. Ple stands for the Plectasin treatment group, Van stands for the vancomycin treatment group, and CK stands for the untreated group. TEXT PRINTED IN THE PICTURE: (D) PN7: 34.4% (2×; 90min); 31.2% (2×; 75min); 30.4% (2×; 60min); 19.2% (2×; 45min); 16.7% (2×; 30min); 1.94% (2×; 15min) | (E) Ple: 32.0% (2×; 90min); 27.4% (2×; 75min); 25.2% (2×; 60min); 12.8% (2×; 45min); 12.0% (2×; 30min); 2.11% (2×; 15min) DOUBTS OF THE COPYIST ABOUT THIS PICTURE: Panels D and E: the picture prints no measure for the percentages, only labels such as "2×PN7-90min: 34.4%" / Panels D and E: "CK: 0.54%" is the untreated control, not a substance, and was left out
The fluorescent dye propidium iodide (PI; Solarbio, Beijing, China) was used to detect the effect of PN7 on the membrane permeability of Staphylococcus aureus. The test method refers to the descriptions in previous studies.

[5] = tested on: Escherichia coli CVCC 195; conditions: data cited from previous results; cited from earlier work
From the text: (§1) Table 6 Antibacterial spectrum (MIC). | column: MIC (μg/mL) / Plectasin

[6] = tested on: S. pullorum CVCC 1789; conditions: data cited from previous results; cited from earlier work
From the text: as §1

[7] = tested on: S. aureus E48; conditions: data cited from previous results; cited from earlier work
From the text: as §1

[8] = tested on: P. aeruginosa CICC 21630; conditions: data cited from previous results; cited from earlier work
From the text: as §1

[9] = tested on: Streptococcus. suis CVCC 606; conditions: data cited from previous results; cited from earlier work
From the text: as §1

[10] = tested on: Staphylococcus aureus ATCC 43300; conditions: data cited from previous results; cited from earlier work
From the text: as §1

[11] = tested on: S. aureus CVCC 546; conditions: data cited from previous results; cited from earlier work
From the text: as §1

[12] = tested on: E. coli O157; conditions: data cited from previous results; cited from earlier work
From the text: as §1

| Structure (SMILES) | MIC [1] | PAE ([2]; 1× MIC) | PAE ([2]; 2× MIC) | PAE ([2]; 4× MIC) | reduction of bacterial counts during the first two hours ([3]; 2× MIC, initial inoculum 5.15 Log10 CFU/mL, MHB, 37 °C, 250 rpm, triplicate) | time to kill 99% of S. aureus ATCC 43300 ([3]; time-kill, 2× MIC) | time after which the colony number was (almost) 0 ([3]; time-kill, detection limit 100 CFU/mL, vancomycin at 2× MIC) | PI-staining percentage of cells ([4]; 30 min) | PI-staining percentage of cells ([4]; 60 min) | PI-staining percentage of cells ([4]; 90 min) | number of colonies at 24 h ([3]; 1× MIC, time-kill) | MIC [5] | MIC [6] | MIC [7] | MIC [8] | MIC [9] | MIC [10] | MIC [11] | MIC [12] |
| --- | --- | --- | --- | --- | --- | --- | --- | --- | --- | --- | --- | --- | --- | --- | --- | --- | --- | --- | --- |
| CN[C@H](CC(C)C)C(=O)N[C@H]1C(=O)N[C@@H](CC(N)=O)C(=O)N[C@H]2C(=O)N[C@H]3C(=O)N[C@H](C(=O)N[C@H](C(=O)O)c4cc(O)cc(O)c4-c4cc3ccc4O)[C@H](O)c3ccc(c(Cl)c3)Oc3cc2cc(c3O[C@@H]2O[C@H](CO)[C@@H](O)[C@H](O)[C@H]2O[C@H]2C[C@](C)(N)[C@H](O)[C@H](C)O2)Oc2ccc(cc2Cl)[C@H]1O [vancomycin, reference compound] | 1 µg/mL (≈ 0.69 µM) | 0.11 h | 0.54 h | 0.78 h | 1.6 Log10 CFU/mL | 8 h | 8 h |  |  |  |  |  |  |  |  |  |  |  |  |
| CC[C@H](C)[C@@H]1NC(=O)[C@H](CO)NC(=O)[C@H](CCCCN)NC(=O)[C@@H]2CSSC[C@@H](C(=O)N[C@@H](Cc3ccc(O)cc3)C(=O)O)NC(=O)[C@H](CCCCN)NC(=O)[C@@H]3CSSC[C@H](NC(=O)[C@H](CCC(N)=O)NC(=O)[C@H](CCSC)NC(=O)[C@H](CC(=O)O)NC(=O)[C@H](CC(=O)O)NC(=O)[C@H](CCC(=O)O)NC(=O)[C@H](CC(=O)O)NC(=O)[C@H](Cc4c[nH]c5ccccc45)NC(=O)[C@@H]4CCCN4C(=O)CNC(=O)[C@H](CC(N)=O)NC(=O)[C@@H](NC(=O)CNC(=O)[C@H](Cc4ccccc4)NC(=O)CN)CSSC[C@H](NC(=O)[C@H](Cc4ccc(O)cc4)NC(=O)CNC(=O)CNC(=O)[C@H](CCCCN)NC(=O)[C@H](Cc4ccc(O)cc4)NC(=O)CNC(=O)[C@H](CCCCN)NC1=O)C(=O)N[C@@H](C)C(=O)N[C@@H](CCCCN)C(=O)NCC(=O)NCC(=O)N[C@@H](Cc1ccccc1)C(=O)N[C@@H](C(C)C)C(=O)N3)C(=O)N[C@@H](Cc1c[nH]cn1)C(=O)N[C@@H](CC(N)=O)C(=O)N[C@@H](Cc1c[nH]cn1)C(=O)N2 [Plectasin] |  |  |  |  |  |  |  | 12.0% | 25.2% | 32.0% | rebounded | >128 ^a μg/mL | >128 ^a μg/mL | 4 ^a μg/mL | >128 ^a μg/mL | 1 ^a μg/mL | 4 ^a μg/mL | 16 ^a μg/mL | >128 ^a μg/mL |

Source: article PMC10451632, “Site Mutation Improves the Expression and Antimicrobial Properties of Fungal Defense” (Antibiotics, 2023)
